Results taken from patent publication US20180057505A1, “BICYCLIC HETEROARYL COMPOUNDS USEFUL AS INHIBITORS OF THE PAR-2 SIGNALING PATHWAY” (VERTEX PHARMACEUTICALS INCORPORATED, priority 2015, published 2018).
pIC50: −log10 of the molar value.

Experiments:
Assay type in all cases: cell-based
[1] = system: Thrombin-stimulated Ca2+ response in HT-29 cells; experiment: Ca FLIPR TETRA assay, ANTAGONIST mode, activator 1 U/mL Thrombin; details: Homo sapiens; HT-29 cells, activator 1 U/mL Thrombin
Description: (§1) Protocol for Testing PAR2 Compounds in ANTAGONIST Mode Using the Ca FLIPR^TETRA Assay (384 Well).
(§2) 23000 HT-29 cells (ATCC# HTB-38) were plated in 384-well black, transparent-flat bottom plates and incubated in 25 uL of 1% FBS/McCoy's media ON at 37° C. under an atmosphere of 5% CO2. The following day, 25 uL FLIPR calcium 5 Molecular Devices assay reagent (Cat: R-8186) was added. Plates were incubated at 37° C. and r. t. for 45 min and 15 min, respectively. Compounds dilutions were prepared in 100% DMSO using a Biomek FX and diluted 20-fold in HBSS and then 5.5 uL was added directly to the cells by the FLIPR^TETRA (10× dilution) using FLIPR Tetra Pipette tips, black, non-sterile, 384 Molecular Devices (Cat: 9000-0764).
(§3) A first read was performed to determine whether the test compounds on their own can activate Ca^2+ responses. The cells were incubated with the compounds for 30 min at r. t. and then read in ANTAGONIST mode in the same plate by stimulating with 6.2 uL of a fixed concentration of the activator: final concentrations 8 μM SLIGKV, 1 U/mL Thrombin, 3.1 U/mL trypsin, or 0.6 μM UTP.

[2] = biological target: T1, PAR2 (HT-29 cells) (Homo sapiens, UniProt P55085); experiment: Ca FLIPR TETRA assay, ANTAGONIST mode, activator 8 μM SLIGKV; details: HT-29 cells, activator 8 μM SLIGKV; maximal antagonist concentration per Method (A: 0.1, 1 or 2 μM; B: 50 μM)
T1 construct: host or cells: HT-29
T1 sequence (P55085 26-397): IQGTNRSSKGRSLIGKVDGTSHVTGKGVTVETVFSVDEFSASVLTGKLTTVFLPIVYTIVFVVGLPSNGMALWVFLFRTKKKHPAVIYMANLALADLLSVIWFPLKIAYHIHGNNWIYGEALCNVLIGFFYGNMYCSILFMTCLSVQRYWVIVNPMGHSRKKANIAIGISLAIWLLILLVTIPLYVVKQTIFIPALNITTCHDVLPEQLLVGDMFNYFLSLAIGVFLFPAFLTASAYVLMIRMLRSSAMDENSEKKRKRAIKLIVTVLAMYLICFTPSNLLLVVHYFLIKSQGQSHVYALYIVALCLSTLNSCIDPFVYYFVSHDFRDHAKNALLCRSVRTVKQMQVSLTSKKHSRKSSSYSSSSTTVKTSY
Description: as §1, §2, §3

[3] = biological target: T1, PAR2 (HT-29 cells); experiment: Ca FLIPR TETRA assay, ANTAGONIST mode, activator 3.1 U/mL trypsin; details: HT-29 cells, activator 3.1 U/mL trypsin; maximal antagonist concentration per Method (A: 0.1, 1 or 2 μM; B: 50 μM)
Description: as §1, §2, §3

[4] = system: UTP-stimulated Ca2+ response in HT-29 cells; experiment: Ca FLIPR TETRA assay, ANTAGONIST mode, activator 0.6 μM UTP; details: Homo sapiens; HT-29 cells, activator 0.6 μM UTP
Description: as §1, §2, §3

Row | SMILES | pIC50 [1] | pIC50 [2] | pIC50 [3] | pIC50 [4]
1 | CC(C)c1cc(-c2ccc(F)cc2)nc2cc(C(=O)N3CCN(C(=O)C4(O)CCOCC4)CC3(C)C)oc12 [Example I-23] | 5.11 | 7.10 | 7.15 | 4.96
2 | CC(=O)N1CCN(C(=O)c2cc3nc(-c4ccc(F)cc4)cc(C(C)C)c3o2)C(C)(C)C1 [Example I-24] | 5.06 | 7.32 | 7.36 | 5.00
3 | CC1(c2cc(-c3ccc(F)cc3)nc3cc(C(=O)N4CCNC(=O)C4(C)C)oc23)CC1 [Example I-25] | 5.37 | 7.85 | 7.74 | 5.57
4 | CC1(c2cc(-c3ccc(F)cc3)nc3cc(C(=O)N4CCN(C(=O)C5(O)CC5)CC4(C)C)oc23)CC1 [Example I-26] | 5.32 | 8.21 | 8.10 | 5.15
5 | CC(C)(O)C(=O)N1CCN(C(=O)c2cc3nc(-c4ccc(F)cc4)cc(C4(C)CC4)c3o2)C(C)(C)C1 [Example I-27] | 5.22 | 7.72 | 7.48 | 5.13
6 | CC[C@@H](O)C(=O)N1CCN(C(=O)c2cc3nc(-c4ccc(F)cc4)cc(C4(C)CC4)c3o2)C(C)(C)C1 [Example I-28] | 5.06 | 8.38 | 8.46 | 4.96
7 | CO[C@H](C)C(=O)N1CCN(C(=O)c2cc3nc(-c4ccc(F)cc4)cc(C4(C)CC4)c3o2)C(C)(C)C1 [Example I-29] | 4.72 | 7.64 | 7.49 | 4.80
8 | CC1(c2cc(-c3ccc(F)cc3)nc3cc(C(=O)N4CCN(C(=O)[C@H]5CCCO5)CC4(C)C)oc23)CC1 [Example I-30] | 4.70 | 7.80 | 7.85 | 4.89
9 | CC1(c2cc(-c3ccc(F)cc3)nc3cc(C(=O)N4CCN(C(=O)C(O)C5CC5)CC4(C)C)oc23)CC1 (centres unmarked) [Example I-31] | < 4.30 | 4.77 | 4.68 | < 4.30
10 | CC(C)[C@@H](O)C(=O)N1CCN(C(=O)c2cc3nc(-c4ccc(F)cc4)cc(C4(C)CC4)c3o2)C(C)(C)C1 [Example I-32] | 4.96 | 8.23 | 8.34 | 5.17
11 | CC1(c2cc(-c3ccc(F)cc3)nc3cc(C(=O)N4CCN(C(=O)[C@H]5CCC(=O)O5)CC4(C)C)oc23)CC1 [Example I-33] | 5.44 | 7.03 | 7.19 | 5.24
12 | CCCCC(O)C(=O)N1CCN(C(=O)c2cc3nc(-c4ccc(F)cc4)cc(C4(C)CC4)c3o2)C(C)(C)C1 (centres unmarked) [Example I-34] | < 4.60 | 8.34 | 8.23 | 4.59
13 | CCC(C)(O)C(=O)N1CCN(C(=O)c2cc3nc(-c4ccc(F)cc4)cc(C4(C)CC4)c3o2)C(C)(C)C1 (centres unmarked) [Example I-35] | 4.85 | 7.47 | 7.31 | 4.96
14 | CC(C)C[C@@H](O)C(=O)N1CCN(C(=O)c2cc3nc(-c4ccc(F)cc4)cc(C4(C)CC4)c3o2)C(C)(C)C1 [Example I-36] | 4.51 | 9.01 | 8.82 | < 4.59
15 | COCCOCC(=O)N1CCN(C(=O)c2cc3nc(-c4ccc(F)cc4)cc(C4(C)CC4)c3o2)C(C)(C)C1 [Example I-37] | 4.68 | 7.24 | 7.17 | 4.77
16 | CC(C)(C)CC(O)C(=O)N1CCN(C(=O)c2cc3nc(-c4ccc(F)cc4)cc(C4(C)CC4)c3o2)C(C)(C)C1 (centres unmarked) [Example I-38] | < 4.30 | 8.46 | 8.51 | 4.41
17 | CC1(c2cc(-c3ccc(F)cc3)nc3cc(C(=O)N4CCN(C(=O)C(C)(O)C(F)(F)F)CC4(C)C)oc23)CC1 (centres unmarked) [Example I-39] | 4.68 | 7.85 | 7.70 | 4.64
18 | CC1(c2cc(-c3ccc(F)cc3)nc3cc(C(=O)N4CCN(C(=O)[C@H](O)C5CCCCC5)CC4(C)C)oc23)CC1 [Example I-40] | 4.43 | 8.30 | 8.14 | 4.52
19 | CC1(c2cc(-c3ccc(F)cc3)nc3cc(C(=O)N4CCN(C(=O)[C@H](O)Cc5ccccc5)CC4(C)C)oc23)CC1 [Example I-41] | < 4.30 | 8.19 | 8.07 | < 4.30
20 | CC1(c2cc(-c3ccc(F)cc3)nc3cc(C(=O)N4CCN(C(=O)C5CCCCC5)CC4(C)C)oc23)CC1 [Example I-42] | < 4.30 | 8.92 | 8.92 | < 4.30
21 | CC1(C(=O)N2CCN(C(=O)c3cc4nc(-c5ccc(F)cc5)cc(C5(C)CC5)c4o3)C(C)(C)C2)CCCCC1 [Example I-43] | < 4.30 | 8.16 | 8.09 | < 4.30
22 | CCC(C)C(=O)N1CCN(C(=O)c2cc3nc(-c4ccc(F)cc4)cc(C4(C)CC4)c3o2)C(C)(C)C1 (centres unmarked) [Example I-44] | < 4.40 | 8.54 | 8.49 | 4.44
23 | CC1(C(=O)N2CCN(C(=O)c3cc4nc(-c5ccc(F)cc5)cc(C5(C)CC5)c4o3)C(C)(C)C2)CC1 [Example I-45] | 4.70 | 8.40 | 8.39 | 5.33
24 | CC(C)C(=O)N1CCN(C(=O)c2cc3nc(-c4ccc(F)cc4)cc(C4(C)CC4)c3o2)C(C)(C)C1 [Example I-46] | 5.39 | 8.10 | 8.15 | 5.28
25 | CC[C@H](C(=O)N1CCN(C(=O)c2cc3nc(-c4ccc(F)cc4)cc(C4(C)CC4)c3o2)C(C)(C)C1)c1ccccc1 [Example I-47] | < 4.30 | 7.54 | 7.11 | < 4.30
26 | CC1(c2cc(-c3ccc(F)cc3)nc3cc(C(=O)N4CCN(C(=O)C5CCC5)CC4(C)C)oc23)CC1 [Example I-48] | 4.80 | 8.29 | 8.23 | 4.80
27 | CC1(c2cc(-c3ccc(F)cc3)nc3cc(C(=O)N4CCN(C(=O)C5CC5)CC4(C)C)oc23)CC1 [Example I-49] | 4.82 | 8.23 | 7.92 | 4.74
28 | CC1(c2cc(-c3ccc(F)cc3)nc3cc(C(=O)N4CCN(C(=O)C5C(C)(C)C5(C)C)CC4(C)C)oc23)CC1 [Example I-50] | < 4.30 | 8.31 | 8.29 | < 4.30
29 | CC1(c2cc(-c3ccc(F)cc3)nc3cc(C(=O)N4CCN(C(=O)C5(C#N)CC5)CC4(C)C)oc23)CC1 [Example I-51] | 4.62 | 8.24 | 8.28 | < 4.30
